Measured values from publication PMC8582576, “New Therapeutic Strategy for Overcoming Multidrug Resistance in Cancer Cells with Pyrazolo[3,4-d]pyrimidine Tyrosine Kinase Inhibitors” (Cancers, 2021).
Where “and” joins values, the source holds several entries; their conditions need not be identical. Equal values may be shown once. Entries after “also recorded” stand apart in the source; their conditions may differ.

Key:
[1] = test system: P-gp expression; assay: Flow cytometric analysis of P-gp expression in DLD1-TxR cells; type: cell-based, human; conditions: 48-h treatment, Si306, pro-Si306 5 and 10 µM, pro-Si221 1 and 2 µM, TQ 5 and 10 nM
Experimental: (§1) The P-gp expression level in NCI-H460/R and DLD1-TxR was measured by flow cytometry. […] After 48 h, cells were collected by trypsinization, washed in PBS, and then directly immuno stained by FITC-conjugated anti-P-gp antibody according to the manufacturer’s protocol.

[2] = test system: NCI-H460/R; assay: MTT cell viability assay, NCI-H460/R; type: cell-based, human; conditions: for IC50: Homo sapiens, NCI-H460/R (MDR), MTT, 72 h, read-out: Decrease in cell viability, IC50; for fold lower IC50 in MDR NCI-H460/R than in sensitive NCI-H460 cells: NCI-H460/R vs NCI-H460, MTT
Experimental: (§2) The metabolic activity of viable cells was measured by MTT assay. Cells grown in 25 cm^2 tissue flasks were trypsinized, seeded into flat-bottomed 96-well tissue culture plates, and incubated overnight. Subsequently, the cells were treated with increasing concentrations of Si306, pro-Si306, and dasatinib (1–25 μM), as well as with Si221 and pro-Si221 (2.5–50 μM) for 72 h. In addition, the combined effects of Si306, pro-Si306, and pro-Si221with DOX as well as with PTX were studied in NCI-H460/R and DLD1-TxR cells, respectively. In simultaneous treatments that lasted 72 h in NCI-H460/R and DLD1-TxR cells, two concentrations of Si306, pro-Si306, and pro-Si221 (0.2 μM and 0.5 μM) were combined with increasing concentrations of DOX and PTX (0.1–2 μM). After treatment, MTT was added to each well at a final concentration of 0.2 mg/mL for 3 h. Then, formazan produced in cells with intact/viable mitochondria was dissolved in 200 μL of DMSO, and the absorbance was measured at 570 nm on a Multiskan Sky Microplate Spectrophotometer (ThermoFisher Scientific, United States). The IC50 value is defined as the concentration of a drug that decreases cell viability by 50% and was calculated by nonlinear regression analysis using GraphPad Prism 6.0 for Windows (La Jolla, CA, USA). Relative reversal was calculated as a relation between the IC50 values of DOX and PTX alone obtained in NCI-H460/R and DLD1-TxR cells, respectively and the IC50 values of DOX and PTX in combination with Pro-Si306 and Pro-Si221.

[3] = test system: P-gp expression; assay: Flow cytometric analysis of P-gp expression in NCI-H460/R cells; type: cell-based, human; conditions: 48-h treatment, Si306, pro-Si306 5 and 10 µM, pro-Si221 1 and 2 µM, TQ 5 and 10 nM
Experimental: as §1

[4] = target: T1, P-gp (Homo sapiens, UniProt P08183); assay: P-gp ATPase activity assay (Pgp-Glo); type: biochemical; set-up: purchased Promega, Madison, WI, USA; conditions: 5 µM and 20 µM; verapamil positive control
T1 sequence (P08183 whole entry): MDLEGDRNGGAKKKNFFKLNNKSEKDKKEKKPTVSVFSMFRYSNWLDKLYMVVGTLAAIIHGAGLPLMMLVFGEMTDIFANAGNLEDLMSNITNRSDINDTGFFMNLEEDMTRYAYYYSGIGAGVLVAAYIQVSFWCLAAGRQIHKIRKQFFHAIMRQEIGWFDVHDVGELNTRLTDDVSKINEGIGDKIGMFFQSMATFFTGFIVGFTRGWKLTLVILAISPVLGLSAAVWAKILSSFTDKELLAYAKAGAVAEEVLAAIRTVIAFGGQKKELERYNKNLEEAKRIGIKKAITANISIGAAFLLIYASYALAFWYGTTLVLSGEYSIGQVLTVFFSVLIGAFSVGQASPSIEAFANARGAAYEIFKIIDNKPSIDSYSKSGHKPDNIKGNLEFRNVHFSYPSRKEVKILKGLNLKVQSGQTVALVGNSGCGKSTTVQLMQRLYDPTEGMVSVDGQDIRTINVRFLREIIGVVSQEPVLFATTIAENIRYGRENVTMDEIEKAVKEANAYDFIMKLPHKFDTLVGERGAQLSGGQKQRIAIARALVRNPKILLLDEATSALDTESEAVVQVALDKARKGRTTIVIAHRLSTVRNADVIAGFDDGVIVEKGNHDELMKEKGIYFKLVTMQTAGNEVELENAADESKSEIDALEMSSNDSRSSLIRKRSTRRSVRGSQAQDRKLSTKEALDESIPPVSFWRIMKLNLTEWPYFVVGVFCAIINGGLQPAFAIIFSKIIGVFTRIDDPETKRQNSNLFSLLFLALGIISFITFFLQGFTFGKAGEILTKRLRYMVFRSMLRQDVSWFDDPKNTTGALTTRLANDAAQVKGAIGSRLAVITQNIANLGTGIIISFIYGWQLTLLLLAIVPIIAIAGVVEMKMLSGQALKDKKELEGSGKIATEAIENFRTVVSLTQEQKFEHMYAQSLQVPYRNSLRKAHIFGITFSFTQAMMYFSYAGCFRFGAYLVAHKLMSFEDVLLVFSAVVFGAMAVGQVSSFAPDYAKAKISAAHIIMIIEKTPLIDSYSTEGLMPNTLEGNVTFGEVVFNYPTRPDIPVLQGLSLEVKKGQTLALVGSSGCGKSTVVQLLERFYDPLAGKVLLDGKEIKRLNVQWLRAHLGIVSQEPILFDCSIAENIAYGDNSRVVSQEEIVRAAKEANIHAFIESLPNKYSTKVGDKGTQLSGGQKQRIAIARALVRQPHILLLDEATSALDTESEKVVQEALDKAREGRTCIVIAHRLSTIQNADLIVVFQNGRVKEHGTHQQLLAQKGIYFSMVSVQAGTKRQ
Experimental: P-gp function depends on ATP hydrolysis energy, and compounds that interact with P-gp can stimulate or inhibit its ATPase activity. P-gp ATPase activity is usually stimulated by its substrates. The Pgp-GloTM assay system detects a compound’s effect on recombinant human P-gp in a cell membrane fraction. P-gp ATPase activity was measured using the luminescent Pgp-Glo^TM assay kit according to manufacturer’s instructions. Briefly, ATP was first incubated with P-gp; then, the P-gp ATPase reaction was stopped, and the remaining un-metabolized ATP was detected as a luciferase-generated luminescent signal. P-gp-dependent decreases in luminescence reflect ATP consumption by P-gp; thus, the greater the decrease in signal, the higher the P-gp activity. […] Na3VO4 is a noncompetitive inhibitor of P-gp ATPase activity. The difference in the luminescent signal, expressed as relative light units (RLU), between Na3VO4-treated samples and untreated samples represents the basal P-gp ATPase activity (ΔRLU basal). The difference in the luminescent signal between Na3VO4-treated samples and samples treated with the tested compounds represents P-gp ATPase activity in the presence of the tested compounds. […] The luminescence of samples treated with 5 μM and 20 μM of Si306, pro-Si306, and pro-Si221 was measured using a luminometer microplate reader (CHAMELEONTMV, Hidex, Turku, Finland).

[5] = test system: DLD1-TxR; assay: MTT cell viability assay, DLD1-TxR; type: cell-based; conditions: Homo sapiens, DLD1-TxR (MDR), 72 h, read-out: Decrease in cell viability, IC50
Experimental: as §2

[6] = test system: DLD1; assay: MTT cell viability assay, DLD1; type: cell-based; conditions: Homo sapiens, DLD-1, 72 h, read-out: Decrease in cell viability, IC50
Experimental: as §2

[7] = test system: DLD1-TxR; assay: MTT assay, reversal of PTX resistance in DLD1-TxR cells; type: cell-based, human; conditions: for Relative Reversal of PTX resistance: IC50 PTX alone / IC50 in combination
Experimental: as §2

[8] = test system: NCI-H460; assay: MTT cell viability assay, NCI-H460; type: cell-based; conditions: Homo sapiens, 72 h, read-out: Decrease in cell viability, IC50
Experimental: as §2

[9] = test system: NCI-H460/R; assay: MTT assay, reversal of DOX resistance in NCI-H460/R cells; type: cell-based, human; conditions: for Relative Reversal of DOX resistance: IC50 DOX alone / IC50 in combination
Experimental: as §2

[10] = test system: NCI-H460, NCI-H460/R, DLD1, DLD1-TxR; assay: MTT cell viability assay, two sensitive/MDR cancer cell line pairs; type: cell-based; conditions: Homo sapiens, summary over the four cell lines, 72 h
Experimental: as §2

[11] = target: T1, P-gp; assay: Rho 123 accumulation assay (P-gp activity) in DLD1-TxR cells; conditions: for P-gp inhibition by Rho 123 intracellular accumulation / kinetics of P-gp inhibition (Rho123 accumulation) / IC50: DLD1-TxR; for P-gp inhibition by Rho 123 intracellular accumulation: 10 µM, 30-min treatment, compared with Dex-VER; for kinetics of P-gp inhibition (Rho123 accumulation): 24-, 48-, 96-, 168-h treatments, 10 µM pro-Si306, 1 and 2 µM pro-Si221, 5 and 10 nM TQ; for IC50: IC50 for P-gp inhibition, Rho123 accumulation, 30 min
Experimental: (§3) The accumulation of fluorescent P-gp substrate Rho 123 was analyzed by flow cytometry. The intensity of fluorescence was proportional to Rho 123 accumulation in the cell. […] NCI-H460 and DLD1 cells were used as a positive control for Rho 123 accumulation. All cell lines were seeded in adherent 6-well plates and grown overnight. In simultaneous treatment that lasted 30 min, 5 μM Rho 123 was applied along with 10 μM of Si306, pro-Si306, Si221, pro-Si221, dasatinib, and Dex-VER. […] Samples were incubated for 30 min at 37 °C in 5% CO2. […] At the end of the accumulation period, the cells were trypsinized, pelleted by centrifugation, washed with PBS, and placed in ice-cold PBS. The samples were kept on ice in the dark until analysis on a CyFlow Space Partec flow cytometer (Sysmex Partec GmbH, Görlitz, Germany). The fluorescence of Rho 123 was detected on fluorescence channel 1 (FL1-H) at 530 nm. Three independent experiments were performed for each experimental setting. A minimum of 10,000 events was assayed for each sample, and the obtained results were analyzed using Summit Dako Software (ver. 4.3, Fort Collins, CO, USA).

[12] = target: T1, P-gp; assay: Rho 123 accumulation assay (P-gp activity) in NCI-H460/R cells; conditions: for IC50: IC50 for P-gp inhibition, Rho123 accumulation, 30 min; for IC50 / P-gp inhibition by Rho 123 intracellular accumulation / kinetics of P-gp inhibition (Rho123 accumulation): NCI-H460/R; for P-gp inhibition by Rho 123 intracellular accumulation: 10 µM, 30-min treatment, compared with Dex-VER; for kinetics of P-gp inhibition (Rho123 accumulation): 24-, 48-, 96-, 168-h treatments, 10 µM pro-Si306, pro-Si221, 5 and 10 nM TQ
Experimental: as §3

| Compound | effect on P-gp expression (protein level) [1] | IC50 [2] [µM] | effect on P-gp expression (protein level) [3] | effect on ATPase activity of P-gp [4] | IC50 [5] [µM] | IC50 [6] [µM] | IC50 [8] [µM] | IC50 [10] [µM] | P-gp inhibition by Rho 123 intracellular accumulation [11] | kinetics of P-gp inhibition (Rho123 accumulation) [11] | IC50 [11] | IC50 [12] | P-gp inhibition by Rho 123 intracellular accumulation [12] | kinetics of P-gp inhibition (Rho123 accumulation) [12] | also measured |
| --- | --- | --- | --- | --- | --- | --- | --- | --- | --- | --- | --- | --- | --- | --- | --- |
| CN1CCN(CCOC(=O)N(Cc2ccccc2Cl)c2ncnc3c2cnn3CC(Cl)c2ccc(Br)cc2)CC1 (stereo not drawn) [Pro-Si221] | tendency to decrease the P-gp expression | 5.14 ± 0.573 | less pronounced effect on the increase in P-gp expression | potential to inhibit the ATPase activity of P-gp; also recorded: highest inhibitory effect on ATPase activity | 5.7 ± 0.543 | 9.8 ± 1.15 | 4.27 ± 0.509 | < 10 | considerably more potent than that observed with Dex-VER | decline until 96 h when it reached stable P-gp inhibition | 669 ± 61 nM | 612 ± 72 nM | considerably more potent than that observed with Dex-VER | continued to decrease until 48 h when it reached stability and was sustained even after 168 h | Relative Reversal of PTX resistance ([7]; SFK inhibitor 0.2 µM): 2.0; Relative Reversal of PTX resistance ([7]; SFK inhibitor 0.5 µM): 3.2; Relative Reversal of DOX resistance ([9]; SFK inhibitor 0.2 µM): 1.8; Relative Reversal of DOX resistance ([9]; SFK inhibitor 0.5 µM): 7.1; inhibition at 30 min, 1 µM ([11]; human, DLD1-TxR cells, probe Rho 123 (5 µM)): 100%; inhibition at 30 min, 1 µM ([12]; human, NCI-H460/R cells, probe Rho 123 (5 µM)): 100% |
| Cc1nc(Nc2ncc(C(=O)Nc3c(C)cccc3Cl)s2)cc(N2CCN(CCO)CC2)n1 [Dasatinib, reference compound] | – | 6.88 ± 0.605 | – | – | 2.9 ± 0.223 | 3.24 ± 0.411 | 3.93 ± 0.295 | < 10 | – | – | – | – | did not show potential to inhibit P-gp | – | – |
| COc1cc2c(cc1OC)CN(CCc1ccc(NC(=O)c3cc(OC)c(OC)cc3NC(=O)c3cnc4ccccc4c3)cc1)CC2 [TQ, tariquidar, reference compound] | increased the expression of P-gp | – | increased the expression of P-gp | – | – | – | – | – | – | reached stable P-gp inhibition after 48 h that was sustained until 168 h | – | – | – | reached stable P-gp inhibition after 48 h that was sustained until 168 h | IC50 ([11]; TQ values in nM (footnote a)): 0.925 ± 0.155 nM; IC50 ([12]; TQ values in nM (footnote a)): 1.07 ± 0.174 nM |
| Clc1ccccc1CNc1ncnc2c1cnn2CC(Cl)c1ccc(Br)cc1 (stereo not drawn) [Si221] | – | 18.1 ± 2.08 | – | – | 11.6 ± 1.29 | 34.1 ± 2.32 | 14.6 ± 1.48 | – | did not modulate the activity of P-gp | – | – | – | did not modulate the activity of P-gp | – | – |
| CC(=O)O[C@H]1C(=O)[C@@]2(C)[C@H]([C@H](OC(=O)c3ccccc3)[C@]3(O)C[C@H](OC(=O)[C@H](O)[C@@H](NC(=O)c4ccccc4)c4ccccc4)C(C)=C1C3(C)C)[C@]1(OC(C)=O)CO[C@@H]1C[C@@H]2O [PTX, paclitaxel, reference compound] | – | – | – | – | – | – | – | – | – | – | – | – | – | – | IC50 ([7]; Homo sapiens, MTT, 72 h, read-out: IC50 of PTX alone): 1.05 ± 0.115 µM |
| ClC(Cn1ncc2c(Nc3cccc(Br)c3)nc(SCCN3CCOCC3)nc21)c1ccccc1 (stereo not drawn) [Si306] | tendency to decrease the P-gp expression | 1.89 ± 0.184 | significantly increased P-gp expression | potential to inhibit the ATPase activity of P-gp | 2.56 ± 0.183 | 3.93 ± 0.679 | 6.24 ± 0.685 | < 10 | considerably more potent than that observed with Dex-VER | – | 6400 nM and 6440 nM | 13300 nM | considerably more potent than that observed with Dex-VER | – | fold lower IC50 in MDR NCI-H460/R than in sensitive NCI-H460 cells [2]: more than 2 fold |
| COc1cccc2c1C(=O)c1c(O)c3c(c(O)c1C2=O)C[C@@](O)(C(=O)CO)C[C@@H]3O[C@H]1C[C@H](N)[C@H](O)[C@H](C)O1 [DOX, doxorubicin, reference compound] | – | – | – | – | – | – | – | – | – | – | – | – | – | – | IC50 ([9]; Homo sapiens, MTT, 72 h, read-out: IC50 of DOX alone): 0.905 ± 0.0444 µM |
| CN1CCN(CCOC(=O)N(c2cccc(Br)c2)c2nc(SCCN3CCOCC3)nc3c2cnn3CC(Cl)c2ccccc2)CC1 (stereo not drawn) [Pro-Si306] | tendency to decrease the P-gp expression | 0.897 ± 0.102 | less pronounced effect on the increase in P-gp expression | potential to inhibit the ATPase activity of P-gp | 1.87 ± 0.128 | 2.45 ± 0.346 | 2.41 ± 0.376 | < 10 | considerably more potent than that observed with Dex-VER | reached stability after 96 h | 3000 nM and 2950 nM | 6200 nM and 6170 nM | considerably more potent than that observed with Dex-VER | reached stability after 96 h | fold lower IC50 in MDR NCI-H460/R than in sensitive NCI-H460 cells [2]: more than 2 fold; Relative Reversal of PTX resistance ([7]; SFK inhibitor 0.2 µM): 1.5; Relative Reversal of PTX resistance ([7]; SFK inhibitor 0.5 µM): 2.5; Relative Reversal of DOX resistance ([9]; SFK inhibitor 0.2 µM): 3.2; Relative Reversal of DOX resistance ([9]; SFK inhibitor 0.5 µM): 10.2 |
